Laboratory results from patent US20260365671A1, “HETEROCYCLIC COMPOUND” (Takeda Pharmaceutical Company Limited, priority 2022, published 2026).

How the values were obtained:
NLRP3 inflammasome = target: T1, NLRP3 inflammasome (Homo sapiens, UniProt Q96P20); assay: IL-1β TR-FRET assay (THP-1 cells differentiated to macrophages with IFN-γ, LPS primed, ATP activated; HTRF); format: cell-based; conditions: THP-1 macrophages, 50 ng/mL LPS priming, compound 30 min, 20 mM ATP 2 hours
T1 construct: IL-1beta HTRF
Experimental: (§1) The biological activity of Compound (I) with respect to NLRP3 was determined using the following in vitro methods.
IL-1β TR-FRET Assay (Reported as IC50)
Monocytic THP-1 cells (ATCC: TIB-202) were maintained in accordance with the provider's instructions in RPMI media (Life Technologies, Cat #A10491-01); RPMI was supplemented with 10% heat inactivated fetal bovine serum (Corning, Cat #35-010-CV). The cells were differentiated into macrophages by the addition of 25 ng/mL IFN-γ (PeproTech, Cat #AF300-02-100UG) for 24 hours at 37 °C/5% CO2. Media was exchanged with fresh media with no FBS, and the cells were treated with 50 ng/mL LPS (priming step) (LPS-EK: Invivogen, Cat #tlrl-peklps). The cells were plated at 240,000 cells per well in 384-well flat-bottom cell culture plates (FALCON, Cat #353962) and were incubated for 24 hours at 37 °C/5% CO2. Compounds were serially diluted (half log dilutions) with DMSO and were finally diluted with Media with no FBS. The compounds were added to the cells in 384-well plates (added in 1:3) and then the plates were incubated for 30 minutes at 37 °C/5% CO2. The NLRP3 inflammasome was activated with the addition of 20 mM ATP (Sigma Cat #A3377-25G) and the cells were incubated for 2 hours at 37 °C/5% CO2. At the end of the incubation period, 30 μL supernatant was transferred to another 384-well plate and mixed on a plate shaker for 1 minutes. The supernatant was mixed with HTRF Antibody (Human IL1 beta kit, Cisbio, 62HIL1BPEH) in assay plates (Greiner Bio-One, Cat #784075) and the assay plates were incubated in shading box at room temperature for 16-24 hours. HTRF signal was measured by EnVision (Perkinelmer) in accordance with the manufacturer's instructions.
(§2) The IC50 values were calculated from a plot of percentage of inhibition versus the inhibitor concentration by a logistics curve fit according to: Y=[Bottom+(Top−Bottom)]/(1+10^[(Log IC50−X)·Hill Slope], where Y is the % inhibition at the inhibitor concentration, X, “Bottom” is the lowest inhibition value, i.e., 0%, “Top” is the maximum inhibition value, i.e., 100%, and the “Hill Slope” describes the slope of the sigmoidal curve between the “Bottom” and “Top” values. The curve fitting was conducted with XLfit (ver. 5.5.0.5, ID Business Solutions Limited) or internally developed software.
(§3) Table 2 lists in vitro biological assay data (IL-1β and TNF-α) for the compounds shown in the examples. These assays are described in the section entitled Biological Activity, above.

NF-κB pathway = assay: TNF-α assay (THP-1 cells differentiated to macrophages with IFN-γ, NF-κB pathway activated with LPS; ELISA); format: cell-based, Human; conditions: compound 30 min, 50 ng/mL LPS 3 hours
Experimental: as §1
TNF-α Assay (Reported as IC50)
Monocytic THP-1 cells (ATCC: TIB-202) were maintained in accordance with the provider's instructions in RPMI media (Life Technologies, Cat #A10491-01); RPMI was supplemented with 10% heat inactivated fetal bovine serum (Hyclone Cat #SH30396.03). The cells were differentiated into macrophages by the addition of 25 ng/mL IFN-γ for 24 hours at 37 °C/5% CO2. Media was exchanged with fresh media with no FBS. The cells were plated at 40,000 cells per well in 384-well flat-bottom cell culture plates (Costar 3764) containing compounds (added in 1:1000) in a 1:3.16 serial dilution series in DMSO and were incubated for 30 minutes at 37 °C/5% CO2. The NF-κB pathway was activated with the addition of 50 ng/mL LPS and the cells were incubated for 3 hours at 37 °C/5% CO2. At the end of the incubation period, supernatant ([…]) was removed, and […] were monitored using an ELISA (Human TNF-α ELISA, R&D systems, Cat #DY210) according to the manufacturer's instructions.
as §2, §3

[1] = Homo sapiens, THP-1, THP-1 macrophages

T1 sequence (Q96P20 whole entry): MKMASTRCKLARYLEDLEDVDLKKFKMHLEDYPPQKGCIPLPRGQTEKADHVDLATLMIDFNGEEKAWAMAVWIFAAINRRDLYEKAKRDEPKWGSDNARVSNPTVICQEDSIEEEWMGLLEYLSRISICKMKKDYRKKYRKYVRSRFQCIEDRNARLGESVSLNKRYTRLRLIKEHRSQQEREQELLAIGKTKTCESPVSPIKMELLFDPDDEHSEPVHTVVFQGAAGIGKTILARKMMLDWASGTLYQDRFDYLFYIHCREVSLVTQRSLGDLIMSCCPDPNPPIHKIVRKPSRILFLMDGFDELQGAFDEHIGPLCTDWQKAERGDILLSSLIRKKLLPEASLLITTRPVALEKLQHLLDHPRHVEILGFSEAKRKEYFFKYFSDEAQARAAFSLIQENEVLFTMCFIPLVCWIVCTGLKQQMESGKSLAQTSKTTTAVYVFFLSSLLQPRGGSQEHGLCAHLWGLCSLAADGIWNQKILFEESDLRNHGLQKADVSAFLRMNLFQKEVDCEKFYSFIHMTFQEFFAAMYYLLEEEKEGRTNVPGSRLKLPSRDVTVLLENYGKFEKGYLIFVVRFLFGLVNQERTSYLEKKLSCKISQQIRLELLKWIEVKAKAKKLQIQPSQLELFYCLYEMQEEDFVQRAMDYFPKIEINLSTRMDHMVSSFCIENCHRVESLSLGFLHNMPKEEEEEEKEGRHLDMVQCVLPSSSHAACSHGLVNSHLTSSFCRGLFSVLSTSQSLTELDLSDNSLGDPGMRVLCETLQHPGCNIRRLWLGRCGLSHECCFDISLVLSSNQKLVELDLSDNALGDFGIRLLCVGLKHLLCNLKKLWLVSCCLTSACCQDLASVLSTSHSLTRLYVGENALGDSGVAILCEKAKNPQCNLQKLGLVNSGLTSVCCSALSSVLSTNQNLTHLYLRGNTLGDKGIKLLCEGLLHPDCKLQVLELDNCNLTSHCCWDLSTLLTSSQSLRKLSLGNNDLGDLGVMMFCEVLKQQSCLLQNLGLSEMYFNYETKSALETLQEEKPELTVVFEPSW

| SMILES | IC50 (NLRP3 inflammasome) | IC50 (NF-κB pathway; [1]) | IC50 (NF-κB pathway; THP-1 macrophages) |
| --- | --- | --- | --- |
| Cc1cc(C)c(-n2cc3sc(N[C@@H]4CCCN(C5CCOC5)C4)nc3n2)c(O)c1 (single isomer, unassigned) [Example 71, 3,5-dimethyl-2-[5-({(3R)-1-[(S)-oxolan-3-yl]piperidin-3-yl}amino)-2H-pyrazolo[3,4-d][1,3]thiazol-2-yl]phenol or 3,5-dimethyl-2-[5-({(3R)-1-[(R)-oxolan-3-yl]piperidin-3-yl}amino)-2H-pyrazolo[3,4-d][1,3]thiazol-2-yl]phenol (tR1)] | 0.043 µM | > 30 µM | – |
| Cc1cc(C)c(-n2cc3sc(N[C@@H]4CCCN(C5CCOC5)C4)nc3n2)c(O)c1 (single isomer, unassigned) [Example 72, 3,5-dimethyl-2-[5-({(3R)-1-[(S)-oxolan-3-yl]piperidin-3-yl}amino)-2H-pyrazolo[3,4-d][1,3]thiazol-2-yl]phenol or 3,5-dimethyl-2-[5-({(3R)-1-[(R)-oxolan-3-yl]piperidin-3-yl}amino)-2H-pyrazolo[3,4-d][1,3]thiazol-2-yl]phenol (tR2)] | 0.029 µM | – | > 30 µM |
| Cc1cc(C)c(-n2cc3sc(N[C@@H]4C[C@@H](F)CN(C5CCOC5)C4)nc3n2)c(O)c1 (single isomer, unassigned) [Example 73, 2-[5-({(3R,5R)-5-fluoro-1-[(S)-oxolan-3-yl]piperidin-3-yl}amino)-2H-pyrazolo[3,4-d][1,3]thiazol-2-yl]-3,5-dimethylphenol or 2-[5-({(3R,5R)-5-fluoro-1-[(R)-oxolan-3-yl]piperidin-3-yl}amino)-2H-pyrazolo[3,4-d][1,3]thiazol-2-yl]-3,5-dimethylphenol (tR1)] | 0.86 µM | > 30 µM | – |
| Cc1cc(C)c(-n2cc3sc(N[C@@H]4C[C@@H](F)CN(C5CCOC5)C4)nc3n2)c(O)c1 (single isomer, unassigned) [Example 74, 2-[5-({(3R,5R)-5-fluoro-1-[(S)-oxolan-3-yl]piperidin-3-yl}amino)-2H-pyrazolo[3,4-d][1,3]thiazol-2-yl]-3,5-dimethylphenol or 2-[5-({(3R,5R)-5-fluoro-1-[(R)-oxolan-3-yl]piperidin-3-yl}amino)-2H-pyrazolo[3,4-d][1,3]thiazol-2-yl]-3,5-dimethylphenol (tR2)] | 0.56 µM | – | > 30 µM |
| Cc1cc(O)c(-n2cc3sc(N[C@@H]4C[C@@H](F)CN(C)C4)nc3n2)c(C2CC2(F)F)c1 (single isomer, unassigned) [Example 126, 3-[(R)-2,2-difluorocyclopropyl]-2-(5-{[(3R,5R)-5-fluoro-1-methylpiperidin-3-yl]amino}-2H-pyrazolo[3,4-d][1,3]thiazol-2-yl)-5-methylphenol or 3-[(S)-2,2-difluorocyclopropyl]-2-(5-{[(3R,5R)-5-fluoro-1-methylpiperidin-3-yl]amino}-2H-pyrazolo[3,4-d][1,3]thiazol-2-yl)-5-methylphenol (tR2)] | 0.0038 µM | > 30 µM | – |
| Cc1cc(O)c(-n2cc3sc(N[C@@H]4C[C@@H](F)CN(C)C4)nc3n2)c(C2CC2(F)F)c1 (single isomer, unassigned) [Example 127, 3-[(R)-2,2-difluorocyclopropyl]-2-(5-{[(3R,5R)-5-fluoro-1-methylpiperidin-3-yl]amino}-2H-pyrazolo[3,4-d][1,3]thiazol-2-yl)-5-methylphenol or 3-[(S)-2,2-difluorocyclopropyl]-2-(5-{[(3R,5R)-5-fluoro-1-methylpiperidin-3-yl]amino}-2H-pyrazolo[3,4-d][1,3]thiazol-2-yl)-5-methylphenol (tR1)] | 0.015 µM | – | > 30 µM |
| Cc1cc(C)c(-n2cc3sc(N[C@H]4COC[C@@H]4F)nc3n2)c(O)c1 (single isomer, unassigned) [Example 142, 2-(5-{[(3R,4S)-4-fluorooxolan-3-yl]amino}-2H-pyrazolo[3,4-d][1,3]thiazol-2-yl)-3,5-dimethylphenol or 2-(5-{[(3S,4R)-4-fluorooxolan-3-yl]amino}-2H-pyrazolo[3,4-d][1,3]thiazol-2-yl)-3,5-dimethylphenol (tR1)] | 0.55 µM | > 30 µM | – |
| Cc1cc(C)c(-n2cc3sc(N[C@H]4COC[C@@H]4F)nc3n2)c(O)c1 (single isomer, unassigned) [Example 143, 2-(5-{[(3R,4S)-4-fluorooxolan-3-yl]amino}-2H-pyrazolo[3,4-d][1,3]thiazol-2-yl)-3,5-dimethylphenol or 2-(5-{[(3S,4R)-4-fluorooxolan-3-yl]amino}-2H-pyrazolo[3,4-d][1,3]thiazol-2-yl)-3,5-dimethylphenol (tR2)] | 0.43 µM | – | > 30 µM |
| Cc1cc(C)c(-n2cc3sc(N[C@H]4COC[C@H]4F)nc3n2)c(O)c1 (single isomer, unassigned) [Example 145, 2-(5-{[(3R,4R)-4-fluorooxolan-3-yl]amino}-2H-pyrazolo[3,4-d][1,3]thiazol-2-yl)-3,5-dimethylphenol or 2-(5-{[(3S,4S)-4-fluorooxolan-3-yl]amino}-2H-pyrazolo[3,4-d][1,3]thiazol-2-yl)-3,5-dimethylphenol (tR2)] | 0.44 µM | – | > 30 µM |
| Cc1cc(C)c(-n2cc3sc(N[C@H]4CN(C)CCC4F)nc3n2)c(O)c1 (stereo in doubt) [Example 10, 2-(5-{[(3S,4S)-4-fluoro-1-methylpiperidin-3-yl]amino}-2H-pyrazolo[3,4-d][1,3]thiazol-2-yl)-3,5-dimethylphenol] | 0.046 µM | – | > 10 µM |
| CN1CCC[C@@H](Nc2nc3nn(-c4ccc(Br)cc4O)cc3s2)C1 [Example 1, 5-bromo-2-(5-{[(3R)-1-methylpiperidin-3-yl]amino}-2H-pyrazolo[3,4-d][1,3]thiazol-2-yl)phenol] | 0.025 µM | > 10 µM | – |
| Cc1cc(Cl)cc(O)c1-n1cc2sc(N[C@@H]3CCCN(C)C3)nc2n1 [Example 2, 5-chloro-3-methyl-2-(5-{[(3R)-1-methylpiperidin-3-yl]amino}-2H-pyrazolo[3,4-d][1,3]thiazol-2-yl)phenol] | 0.0016 µM | > 30 µM | – |
| Cc1cc(C)c(-n2cc3sc(N[C@@H]4C[C@@H](F)CN(C)C4)nc3n2)c(O)c1 [Example 3, 2-(5-{[(3R,5R)-5-fluoro-1-methylpiperidin-3-yl]amino}-2H-pyrazolo[3,4-d][1,3]thiazol-2-yl)-3,5-dimethylphenol] | 0.0082 µM | > 30 µM | – |
| Cc1cc(C)c(-n2cc3sc(N[C@@H]4CCCN(C)C4)nc3n2)c(O)c1 [Example 4, 3,5-dimethyl-2-(5-{[(3R)-1-methylpiperidin-3-yl]amino}-2H-pyrazolo[3,4-d][1,3]thiazol-2-yl)phenol] | 0.0036 µM | > 30 µM | – |
| Cc1cc(F)cc(O)c1-n1cc2sc(N[C@@H]3CCCN(C)C3)nc2n1 [Example 5, 5-fluoro-3-methyl-2-(5-{[(3R)-1-methylpiperidin-3-yl]amino}-2H-pyrazolo[3,4-d][1,3]thiazol-2-yl)phenol] | 0.015 µM | > 30 µM | – |
| Cc1cc(F)cc(O)c1-n1cc2sc(N[C@@H]3CCCC[C@H]3O)nc2n1 [Example 6, 5-fluoro-2-(5-{[(1R,2R)-2-hydroxycyclohexyl]amino}-2H-pyrazolo[3,4-d][1,3]thiazol-2-yl)-3-methylphenol] | 0.98 µM | > 10 µM | – |
| CCN1C[C@H](F)C[C@@H](Nc2nc3nn(-c4c(C)cc(C)cc4O)cc3s2)C1 [Example 7, 2-(5-{[(3R,5R)-1-ethyl-5-fluoropiperidin-3-yl]amino}-2H-pyrazolo[3,4-d][1,3]thiazol-2-yl)-3,5-dimethylphenol] | 0.013 µM | > 30 µM | – |
